We go through 29 compounds from PubChem BioAssay AID651880 (NMMLSC, 2012).

Structures are written as SMILES. Calls of active or inactive are those of the source. No rule for the calls is given here.

In the assay the target is Botulinum neurotoxin type F light chain protease (Clostridium botulinum). Nature of the assay: Botulinum neurotoxin type F light chain protease inhibitors, multiplex microsphere cleavage, dose response (AID 651880). The settings on record: multiplex microsphere flow cytometry protease cleavage assay.
As to `O=[N+]([O-])c1ccc(N2N=C(c3ccccc3)CC2c2ccccc2)cc1` (centres undefined), the EC50 is 0.2 µM.

On to `CNC(=O)c1ccc(N2N=C(c3ccc(SC)cc3)CC2c2ccccc2)cc1` (centres undefined), for which the EC50 was > 20 µM (inactive).

`COc1ccc(N2N=C(c3ccc(SC)cc3)CC2c2ccccc2)cc1` (centres undefined): the EC50 is > 20 µM (inactive).

Turning to `NS(=O)(=O)c1ccc(N2N=C(c3ccncc3)CC2c2ccccc2)cc1` (centres undefined), the EC50 is > 20 µM (inactive).

On to `CNC(=O)c1ccc(N2N=C(c3ccccc3)CC2c2ccccc2)cc1` (centres undefined), for which the EC50 was > 20 µM (inactive).

In the case of `NS(=O)(=O)c1ccc(N2N=C(c3ccccc3)CC2c2ccccc2)cc1` (centres undefined), the EC50 was > 20 µM (inactive).

With `O=C(c1ccc(N2N=C(c3ccccc3)CC2c2ccccc2)cc1)N1CCCCC1` (centres undefined), the EC50 is > 20 µM (inactive).

For the compound `COc1ccc(N2N=C(c3ccccn3)CC2c2ccccc2)cc1` (centres undefined), the EC50 was > 20 µM (inactive).

With `CSc1ccc(C2=NN(c3ccc(S(N)(=O)=O)cc3)C(c3ccccc3)C2)cc1` (centres undefined), the EC50 is > 20 µM (inactive).

Regarding `CC(C)NC(=O)c1ccc(N2N=C(c3ccccc3)CC2c2ccccc2)cc1` (centres undefined), the EC50 was > 20 µM (inactive).

On to `c1ccc(C2CC(c3cccnc3)=NN2c2ccccc2)cc1` (centres undefined), for which the EC50 was > 20 µM (inactive).

Regarding `CSc1ccc(C2=NN(c3ccc(S(C)(=O)=O)cc3)C(c3ccccc3)C2)cc1` (centres undefined), the EC50 was > 20 µM (inactive).

For `COc1ccc(N2N=C(c3ccccc3)CC2c2ccccc2)cc1` (centres undefined), the EC50 is > 20 µM (inactive).

Turning to `CSc1ccc(C2=NN(c3ccc(C(=O)N4CCCCC4)cc3)C(c3ccccc3)C2)cc1` (centres undefined), the EC50 was > 20 µM (inactive).

`c1ccc(C2CC(c3ccncc3)=NN2c2ccccc2)cc1` (centres undefined): the EC50 was > 20 µM (inactive).

As for `c1ccc(C2=NN(c3ccccc3)C(c3ccccc3)C2)cc1` (centres undefined), the EC50 was > 20 µM (inactive).

Turning to `CS(=O)(=O)c1ccc(N2N=C(c3cccnc3)CC2c2ccccc2)cc1` (centres undefined), the EC50 was > 20 µM (inactive).

For `c1ccc(C2CC(c3ccccn3)=NN2c2ccccc2)cc1` (centres undefined), the EC50 was > 20 µM (inactive).

Turning to `CSc1ccc(C2=NN(c3ccc(C(=O)N4CCOCC4)cc3)C(c3ccccc3)C2)cc1` (centres undefined), the EC50 is > 20 µM (inactive).

Take `CSc1ccc(C2=NN(c3ccccc3)C(c3ccccc3)C2)cc1` (centres undefined): the EC50 was > 20 µM (inactive).

Regarding `CC(C)CNC(=O)c1ccc(N2N=C(c3ccccc3)CC2c2ccccc2)cc1` (centres undefined), the EC50 was > 20 µM (inactive).

As for `COc1ccc(N2N=C(c3cccnc3)CC2c2ccccc2)cc1` (centres undefined), the EC50 was > 20 µM (inactive).

Consider `NS(=O)(=O)c1ccc(N2N=C(c3cccnc3)CC2c2ccccc2)cc1` (centres undefined), for which the EC50 is > 20 µM (inactive).

Take `CS(=O)(=O)c1ccc(N2N=C(c3ccncc3)CC2c2ccccc2)cc1` (centres undefined): the EC50 was > 20 µM (inactive).

Take `O=C(c1ccc(N2N=C(c3ccccc3)CC2c2ccccc2)cc1)N1CCOCC1` (centres undefined): the EC50 is > 20 µM (inactive).

Turning to `CSc1ccc(C2=NN(c3ccc([N+](=O)[O-])cc3)C(c3ccccc3)C2)cc1` (centres undefined), the EC50 was 0.05 µM.

Regarding `c1ccc(-c2cc(-c3ccccc3)n(-c3ccccc3)n2)cc1`, the EC50 is > 20 µM (inactive).

For `CS(=O)(=O)c1ccc(N2N=C(c3ccccc3)CC2c2ccccc2)cc1` (centres undefined), the EC50 is > 20 µM (inactive).

In the case of `COc1ccc(N2N=C(c3ccncc3)CC2c2ccccc2)cc1` (centres undefined), the EC50 is > 20 µM (inactive).
